Laboratory results as given in patent publication US20260001875A1, “AMINOPYRIMIDINYL DERIVATIVES FOR THE TREATMENT OF PARKINSON'S DISEASE” (UNIVERSITY OF DUNDEE, priority 2022, published 2026).

Key:
LRRK2^G2019S = target: T1, LRRK2^G2019S (Mus musculus, UniProt Q5S006, G2019S); experiment: Western blot LRRK2 degradation in LRRK2^G2019S MEFs; assay type: cell-based; settings: dose response, 4 h treatment; for Dmax: read-out: Dmax on G2019S MEFs
T1 construct: endogenous in cells; host or cells: LRRK2[G2019S] mouse embryonic fibroblasts (MEFs)
T1 sequence (Q5S006 whole entry G2019S): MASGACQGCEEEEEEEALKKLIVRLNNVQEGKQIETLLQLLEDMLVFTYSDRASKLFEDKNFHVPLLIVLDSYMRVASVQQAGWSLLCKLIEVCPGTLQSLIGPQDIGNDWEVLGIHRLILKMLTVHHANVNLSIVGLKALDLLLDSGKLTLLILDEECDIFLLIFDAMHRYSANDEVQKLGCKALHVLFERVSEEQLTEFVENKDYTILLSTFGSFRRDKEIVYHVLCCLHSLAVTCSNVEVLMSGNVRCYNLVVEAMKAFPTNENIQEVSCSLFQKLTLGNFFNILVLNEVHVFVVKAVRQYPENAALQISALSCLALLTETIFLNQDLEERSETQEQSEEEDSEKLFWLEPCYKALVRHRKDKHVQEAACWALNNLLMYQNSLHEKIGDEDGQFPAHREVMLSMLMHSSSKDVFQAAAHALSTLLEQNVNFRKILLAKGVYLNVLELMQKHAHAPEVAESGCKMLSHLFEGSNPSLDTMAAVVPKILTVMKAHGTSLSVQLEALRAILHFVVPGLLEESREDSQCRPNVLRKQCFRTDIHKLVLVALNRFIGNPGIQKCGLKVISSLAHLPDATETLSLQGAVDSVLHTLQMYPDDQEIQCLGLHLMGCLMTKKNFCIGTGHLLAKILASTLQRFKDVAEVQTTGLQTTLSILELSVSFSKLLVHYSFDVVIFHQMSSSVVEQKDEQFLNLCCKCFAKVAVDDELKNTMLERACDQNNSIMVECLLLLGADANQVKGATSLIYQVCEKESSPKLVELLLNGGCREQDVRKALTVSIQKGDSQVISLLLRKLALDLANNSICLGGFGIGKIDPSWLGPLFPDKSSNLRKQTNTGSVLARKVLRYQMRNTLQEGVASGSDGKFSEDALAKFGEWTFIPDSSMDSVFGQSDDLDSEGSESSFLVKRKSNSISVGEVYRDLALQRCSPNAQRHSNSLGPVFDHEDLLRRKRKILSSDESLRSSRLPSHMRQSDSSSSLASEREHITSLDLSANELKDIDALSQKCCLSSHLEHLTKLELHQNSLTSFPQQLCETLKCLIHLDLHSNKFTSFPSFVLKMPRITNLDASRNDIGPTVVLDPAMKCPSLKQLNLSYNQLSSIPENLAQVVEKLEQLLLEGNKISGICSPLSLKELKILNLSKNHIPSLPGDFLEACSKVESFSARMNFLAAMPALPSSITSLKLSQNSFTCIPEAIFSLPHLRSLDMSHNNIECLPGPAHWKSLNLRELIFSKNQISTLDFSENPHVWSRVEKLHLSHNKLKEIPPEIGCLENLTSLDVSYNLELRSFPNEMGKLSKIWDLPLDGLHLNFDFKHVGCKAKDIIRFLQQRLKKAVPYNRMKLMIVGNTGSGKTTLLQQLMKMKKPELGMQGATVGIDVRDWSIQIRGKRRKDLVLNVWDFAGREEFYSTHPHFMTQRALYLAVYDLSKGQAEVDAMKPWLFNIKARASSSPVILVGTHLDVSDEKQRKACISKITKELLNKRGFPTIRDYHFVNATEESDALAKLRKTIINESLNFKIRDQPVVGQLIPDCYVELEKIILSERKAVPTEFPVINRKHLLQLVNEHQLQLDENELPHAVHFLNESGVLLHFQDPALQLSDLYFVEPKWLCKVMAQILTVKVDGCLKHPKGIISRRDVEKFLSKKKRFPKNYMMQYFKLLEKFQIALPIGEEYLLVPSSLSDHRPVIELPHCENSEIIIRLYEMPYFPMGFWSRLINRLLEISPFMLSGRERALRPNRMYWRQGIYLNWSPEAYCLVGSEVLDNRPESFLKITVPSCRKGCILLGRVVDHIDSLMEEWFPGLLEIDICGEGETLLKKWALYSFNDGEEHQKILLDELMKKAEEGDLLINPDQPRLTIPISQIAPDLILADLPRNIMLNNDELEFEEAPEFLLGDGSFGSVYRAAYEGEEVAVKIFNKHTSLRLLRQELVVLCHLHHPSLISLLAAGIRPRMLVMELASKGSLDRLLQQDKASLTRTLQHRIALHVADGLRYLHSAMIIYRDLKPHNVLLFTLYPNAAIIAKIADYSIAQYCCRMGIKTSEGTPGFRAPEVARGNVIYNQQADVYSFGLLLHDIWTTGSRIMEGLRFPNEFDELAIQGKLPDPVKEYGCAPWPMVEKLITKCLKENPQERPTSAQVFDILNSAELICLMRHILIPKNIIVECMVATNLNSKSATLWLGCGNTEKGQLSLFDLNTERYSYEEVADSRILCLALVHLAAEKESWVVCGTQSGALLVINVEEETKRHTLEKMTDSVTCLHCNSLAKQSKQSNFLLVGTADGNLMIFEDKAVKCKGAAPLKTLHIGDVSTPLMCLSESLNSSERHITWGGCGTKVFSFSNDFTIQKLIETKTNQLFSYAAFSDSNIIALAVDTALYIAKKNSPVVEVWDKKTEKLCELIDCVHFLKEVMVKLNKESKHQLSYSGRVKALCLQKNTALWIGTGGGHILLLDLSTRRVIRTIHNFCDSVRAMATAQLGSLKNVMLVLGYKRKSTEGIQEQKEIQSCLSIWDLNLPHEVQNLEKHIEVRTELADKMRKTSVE
Description: (§1) The second-generation PROTACs were tested in parallel with the first generation PROTACs SD75, SD82, and SD100. The compounds were tested at 33 nM or […] concentrations for 4 hours or 24 hours, running two biological replicates per condition and achieving quantifications representative of both replicates. Analysis by quantitative immunoblotting was performed with readouts of the total LRRK2 (antibody recognizes epitope in C-terminus of protein), Rab10 pThr73 (physiological substrate) and LRRK2 pSer935 (biomarker phosphorylation site).
(§2) Primary MEFs were generated as described in a previous study (Wiggin et al., Mol. Cell Biol. 2002 April; 22(8):2871-81.). Briefly, the uterine horn was collected from adult female mice at day E12.5 and transferred to a 10 cm tissue culture dish containing cold PBS. Two forceps were used to tear the yolk sacs to isolate each embryo. Forceps were cleaned thoroughly with 70% ethanol between each embryo isolation. The embryos were culled, and a tissue piece was collected in a PCR tube for genotyping. The red tissue of the embryo, which grows to become the heart and liver, was removed. The remainder of the embryo was minced with a scalpel blade and incubated with 7.5 ml trypsin-EDTA solution for 10 minutes in a 37° C. tissue culture CO2 incubator. The dish was removed from the incubator and checked under a light microscope for single cells. 7.5 ml complete media was added to the trypsinised cells, and the cell suspension was transferred to a 15 ml Falcon tube, centrifuged at 1200 rpm for 5 minutes at room temperature. The trypsin was aspirated, the cell pellet was resuspended in 5 ml fresh complete media, and the cell suspension was plated in a 60 mm tissue culture dish and incubated in a 37° C., 5% CO2 tissue culture incubator. The MEFs at this stage were considered as passage 0 and were passaged and expanded for experimental use once the genotype was confirmed by allelic sequencing and immunoblotting. MEFs were cultured in Dulbecco's modified Eagle medium (DMEM) containing 10% (v/v) fetal bovine serum (FBS), 2 mM L-glutamine, 100 U/ml penicillin, and 100 μg/ml streptomycin supplemented with 1× non-essential amino acids and 1 mM sodium pyruvate.
Culturing and passaging of adherent cell lines were carried out using aseptic technique in CL1 or CL2 (for PBMC isolation) biological safety cabinets. All cells were incubated in a 37° C. incubator with 5% CO2. Cell lines were regularly tested for mycoplasma contamination. For western blot assay, the cells were seeded in 6-well plates. […] The cells were immediately placed on ice and were scraped and collected into 1.5 ml Eppendorf tubes. Cell lysates were incubated on ice for 10 minutes prior to centrifugation at 15,000 g at 4° C. for 15 minutes. The cell pellet was discarded, and supernatant was collected for analysis by quantitative immunoblotting. For long term storage, the supernatant was flash frozen and stored at −80° C. Protein concentrations of cell lysates were determined using the Bradford assay.
Cell lysates containing a quarter of a volume of 4× NuPAGE LDS sample buffer (NP0007) supplemented with 5% β-mercaptoethanol, were heated at 95° C. for 5 minutes. 15 to 20 μg of samples were loaded onto pre-cast 4-12% Bis-Tris midi 20W or 26W gels (Thermofisher Scientific®, Cat #WG1402BOX or WG1403BOX) and resolved at 130 V for 2 hours with NuPAGE MOPS SDS running buffer (Thermofisher Scientific® Cat #NP0001-02). Proteins were electrophoretically transferred onto a 0.45 μm nitrocellulose membrane (GE Healthcare, Amersham Protran® Supported 0.45 mm NC) at 90 V for 90 min on ice in transfer buffer (48 mM Tris base and 39 mM glycine supplemented with 20% methanol). The transferred membrane was blocked with 5% (w/v) skim milk powder dissolved in tris-buffered saline with tween (TBS-T) (50 mM Tris base, 150 mM sodium chloride (NaCl), 0.1% (v/v) Tween-20) at room temperature for 1 hour.

Rab10 pThr73 [1] = experiment: Rab10 Thr73 dephosphorylation (immunoblot) in WT MEFs; assay type: cell-based, mouse; settings: Mus musculus; for inhibition at 0.033 µM / inhibition at 1 µM: read-out: pRab10 inhibited in WT MEFs; for EC50: dose response, 4 h treatment, read-out: WT MEFs pRab10-dephosphrylation EC50
Method in brief: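 Wild-type mouse embryonic fibroblasts in 6-well plates were treated with LRRK2 PROTACs, with two biological replicates per condition. Cells were washed in PBS and lysed on ice in buffer containing phosphatase and protease inhibitors plus 1% Triton X-100, then clarified at 15,000 g. Rab10 Thr73 phosphorylation was measured by quantitative immunoblotting of 15 to 20 μg protein on 4-12% Bis-Tris gels.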

Rab10 pThr73 [2] = experiment: Rab10 Thr73 dephosphorylation (immunoblot) in LRRK2^G2019S MEFs; assay type: cell-based, mouse; settings: Mus musculus; for inhibition at 1 µM: read-out: pRab10 inhibited in LRRK2^G2019S MEFs; for EC50: dose response, 4 h treatment, read-out: G2019S MEFs-pRab10-dephosphorylation EC50
LRRK2^WT = target: T2, LRRK2^WT (Mus musculus, UniProt Q5S006); experiment: Western blot LRRK2 degradation in WT MEFs; assay type: cell-based; settings: dose response, 4 h treatment; for Dmax: read-out: Dmax on WT MEFs
T2 construct: endogenous in cells; host or cells: primary wild-type mouse embryonic fibroblasts (MEFs)
T2 sequence (Q5S006 whole entry): as the sequence (Q5S006 whole entry G2019S) above, with S2019G counted along it
Description: as §1, with “Western blot degradation assays for the LRRK2 protacs were performed with WT and PD-associated LRRK2 [G2019S] mouse embryonic fibroblasts (MEFs). The second-generation” for “The second-generation”
as §2
Culturing and passaging of adherent cell lines were carried out using aseptic technique in CL1 or CL2 (for PBMC isolation) biological safety cabinets. All cells were incubated in a 37° C. incubator with 5% CO2. Cell lines were regularly tested for mycoplasma contamination. For western blot assay, the cells were seeded in 6-well plates. After treating with testing compounds at indicated concentrations and time period, the media was removed and the cells were washed with PBS and lysed in 100 μl ice-cold complete lysis buffer containing 50 mM Tris-HCl pH 7.4, 1 mM EGTA, 10 mM 2-glycerophosphate, 50 mM sodium fluoride, 5 mM sodium pyrophosphate, 270 mM sucrose, supplemented with 1 μg/ml microcystin-LR, 1 mM sodium orthovanadate, complete EDTA-free protease inhibitor cocktail (Roche) and 1% (v/v) Triton X-100. The cells were immediately placed on ice and were scraped and collected into 1.5 ml Eppendorf tubes. Cell lysates were incubated on ice for 10 minutes prior to centrifugation at 15,000 g at 4° C. for 15 minutes. The cell pellet was discarded, and supernatant was collected for analysis by quantitative immunoblotting. For long term storage, the supernatant was flash frozen and stored at −80° C. Protein concentrations of cell lysates were determined using the Bradford assay.
Cell lysates containing a quarter of a volume of 4× NuPAGE LDS sample buffer (NP0007) supplemented with 5% β-mercaptoethanol, were heated at 95° C. for 5 minutes. […]

Rab10 pThr73 [3] = experiment: Rab10 Thr73 dephosphorylation (immunoblot) in LRRK2^G2019S MEFs; assay type: cell-based; settings: Mus musculus, read-out: pRab10 inhibited in LRRK2^G2019S MEFs

SMILES: CNc1nc(Nc2ccc(C(=O)N3CCN(C[C@H]4CC[C@H](CSC(C)(C)[C@H](NC(=O)C5(F)CC5)C(=O)N5C[C@H](O)CC5C(=O)NCc5ccc(-c6scnc6C)cc5C)CC4)CC3)cc2OC)ncc1Cl (stereo partly drawn) [XL02048, (2S,4R)-1-((R)-3-((((1R,4R)-4-((4-(4-((5-chloro-4-(methylamino)pyrimidin-2-yl)amino)-3-methoxybenzoyl)piperazin-1-yl)methyl)cyclohexyl)methyl)thio)-2-(1-fluorocyclopropane-1-carboxamido)-3-methylbutanoyl)-4-hydroxy-N-(2-methyl-4-(4-methylthiazol-5-yl)benzyl)pyrrolidine-2-carboxamide]
- DC50 (LRRK2^G2019S): 23 nM
- Dmax (LRRK2^G2019S): 83.5%
- inhibition at 0.033 µM (Rab10 pThr73 [1]; 33 nM/4 h treatment): 0 to 70%
- inhibition at 0.033 µM (Rab10 pThr73 [1]; 33 nM/24 h treatment): 0 to 80%
- inhibition at 1 µM (Rab10 pThr73 [1]; 1 μM/4 h treatment): 80 to 100%
- inhibition at 1 µM (Rab10 pThr73 [1]; 1 μM/24 h treatment): 80 to 100%
- EC50 (Rab10 pThr73 [1]): 72 nM
- inhibition at 1 µM (Rab10 pThr73 [2]; 1 μM/4 h treatment): 10 to 100%
- inhibition at 1 µM (Rab10 pThr73 [2]; 1 μM/24 h treatment): 80 to 100%
- EC50 (Rab10 pThr73 [2]): 53 nM
- DC50 (LRRK2^WT): 46 nM
- Dmax (LRRK2^WT): 81.5%
- inhibition at 0.033 µM (Rab10 pThr73 [3]; 33 nM/4 h treatment): 0 to 90%
- inhibition at 0.033 µM (Rab10 pThr73 [3]; 33 nM/24 h treatment): 30 to 90%

SMILES: CNc1nc(Nc2ccc(C(=O)N3CCN(C[C@H]4CC[C@H](CSC(C)(C)[C@H](NC(=O)C5(F)CC5)C(=O)N5C[C@H](O)CC5C(=O)N[C@@H](C)c5ccc(-c6scnc6C)cc5)CC4)CC3)cc2OC)ncc1Cl (stereo partly drawn) [XL02049, (2S,4R)-1-((R)-3-((((1R,4R)-4-((4-(4-((5-chloro-4-(methylamino)pyrimidin-2-yl)amino)-3-methoxybenzoyl)piperazin-1-yl)methyl)cyclohexyl)methyl)thio)-2-(1-fluorocyclopropane-1-carboxamido)-3-methylbutanoyl)-4-hydroxy-N—((S)-1-(4-(4-methylthiazol-5-yl)phenyl)ethyl)pyrrolidine-2-carboxamide]
- DC50 (LRRK2^G2019S): 27 nM
- Dmax (LRRK2^G2019S): 90%
- inhibition at 0.033 µM (Rab10 pThr73 [1]; 33 nM/4 h treatment): 0 to 70%
- inhibition at 0.033 µM (Rab10 pThr73 [1]; 33 nM/24 h treatment): 0 to 80%
- inhibition at 1 µM (Rab10 pThr73 [1]; 1 μM/4 h treatment): 80 to 100%
- inhibition at 1 µM (Rab10 pThr73 [1]; 1 μM/24 h treatment): 80 to 100%
- EC50 (Rab10 pThr73 [1]): 65 nM
- inhibition at 1 µM (Rab10 pThr73 [2]; 1 μM/4 h treatment): 10 to 100%
- inhibition at 1 µM (Rab10 pThr73 [2]; 1 μM/24 h treatment): 80 to 100%
- EC50 (Rab10 pThr73 [2]): 31 nM
- DC50 (LRRK2^WT): 40 nM
- Dmax (LRRK2^WT): 76.5%
- inhibition at 0.033 µM (Rab10 pThr73 [3]; 33 nM/4 h treatment): 0 to 90%
- inhibition at 0.033 µM (Rab10 pThr73 [3]; 33 nM/24 h treatment): 30 to 90%

SMILES: CNc1nc(Nc2ccc(C(=O)N3CCN(C[C@H]4CC[C@@H](CSC(C)(C)[C@H](NC(=O)C5(F)CC5)C(=O)N5C[C@H](O)CC5C(=O)NCc5ccc(-c6scnc6C)cc5C)CC4)CC3)cc2OC)ncc1Cl (stereo partly drawn) [XL02059, (2S,4R)-1-((R)-3-((((1s,4S)-4-((4-(4-((5-chloro-4-(methylamino)pyrimidin-2-yl)amino)-3-methoxybenzoyl)piperazin-1-yl)methyl)cyclohexyl)methyl)thio)-2-(1-fluorocyclopropane-1-carboxamido)-3-methylbutanoyl)-4-hydroxy-N-(2-methyl-4-(4-methylthiazol-5-yl)benzyl)pyrrolidine-2-carboxamide]
- Dmax (LRRK2^G2019S): 76%
- inhibition at 0.033 µM (Rab10 pThr73 [1]; 33 nM/4 h treatment): 0 to 70%
- inhibition at 0.033 µM (Rab10 pThr73 [1]; 33 nM/24 h treatment): 0 to 80%
- inhibition at 1 µM (Rab10 pThr73 [1]; 1 μM/4 h treatment): 80 to 100%
- inhibition at 1 µM (Rab10 pThr73 [1]; 1 μM/24 h treatment): 80 to 100%
- EC50 (Rab10 pThr73 [1]): 227 nM
- inhibition at 1 µM (Rab10 pThr73 [2]; 1 μM/4 h treatment): 10 to 100%
- inhibition at 1 µM (Rab10 pThr73 [2]; 1 μM/24 h treatment): 80 to 100%
- EC50 (Rab10 pThr73 [2]): 55 nM
- Dmax (LRRK2^WT): 77.5%
- inhibition at 0.033 µM (Rab10 pThr73 [3]; 33 nM/4 h treatment): 0 to 90%
- inhibition at 0.033 µM (Rab10 pThr73 [3]; 33 nM/24 h treatment): 30 to 90%
